Measured values reported in article PMC2967473, “PP2A1 Binding, Cell Transducing and Apoptotic Properties of Vpr77–92: A New Functional Domain of HIV-1 Vpr Proteins” (PLoS ONE, 2010).
Residues, ends and D or L forms follow the SMILES beside them. *: point of attachment. Biotin = O=C1N[C@H]2[C@H](CS[C@H]2CCCCC(=O)*)N1

B1: Vpr-T: full length HIV-1 89.6-Vpr in a 6-his C-term tagged form, expressed in bacteria (protein)
chain: MEQAPEDQGPQREPYNDWTLELLEELKNEAVRHFPRIWLHSLGQHIYETYGDTWTGVEALIRILQQLLFIHFRIGCRHSRIGIIQQRRTRNGASKS
modifications: left off: His6, C-terminal, kept
notes: full length HIV-1 89.6-Vpr in a 6-his C-term tagged form, expressed in bacteria

How the values were obtained:
HeLa cells = experiment: Cell penetration and localization of biotinylated peptides; assay type: cell-based, human; conditions: 150 µM biotinylated peptide, 2 h, 37°C, streptavidin-peroxydase/DAB staining, microscopy; for Cell penetration: fixation
Experimental: A total of 4×10^4 exponentially proliferating HeLa cells growing in a sub confluent monolayer were seeded per well on a Lab-Tek and incubated at 37°C, 5% CO2. Biotinylated peptides were added 48 h later to the cells at different concentrations for different periods of time. Cells were washed twice in PBS, and fixed with absolute ethanol for 10 min at –20°C before addition of 100 µM of streptavidin HRP conjugate After 30 min incubation at 37°C, cells were rinsed twice in PBS and incubated with DAB for around 10 min. Cells were washed in distilled water and mounted for microscopic examination.

PP2A1 holoenzyme = experiment: Affinity chromatography of PP2A1 on Vpr-T-agarose column, phosphorylase a phosphatase assay; assay type: binding, pig; conditions: 16 µg PP2A1 on 1 mL column, buffer C pH 7.4, linear gradient to 1 M NaCl, phosphorylase a as substrate
Experimental: Figure 1 Analysis of HIV-1 Vpr and PP2A1 interaction. (A) 16 µg of PP2A1 holoenzyme purified from pig brain was loaded on a 1 mL HIV-1 strain 89.6-Vpr-T-agarose column equilibrated in buffer C (25 mM TrisHCl pH 7.4, 50 mM NaCl, 0.1 mM EDTA). The column was washed with 10 mL of buffer C and then developed with a 18 mL linear gradient of buffer C to buffer C plus 1 M NaCl. Phosphatase activity of collected fractions was assayed with phosphorylase a as substrat (1U = 1 pm of phosphate liberated by 10 µL of fraction/min). A major peak of phosphatase activity was detected, eluting at 0.3 M NaCl. (B) ECL revelation of PP2A binding assay on cellulose-bound Vpr peptides. 43 overlapping dodecapeptides with a two-amino acid shift scanning the entire 89.6-Vpr sequence (accession number: AAA81039) were synthesized on a cellulose membrane. The membrane was incubated with PP2A1 holoenzyme (upper panel) or PP2A-A subunit (lower panel) and subsequently with anti-PP2A antibodies followed by peroxydase-labelled anti-guinea pig antibodies. (C) Sequence of HIV-1 Vpr protein: sequence of the two PP2A-A binding sites are indicated in bold. These sequences correspond to overlapping sequences of positive dodecapeptides 29 to 32 (PP2A-A subunit incubation) or 39 to 41 (PP2A1 incubation). (D) Co-precipitation of DPT-Vpr peptides with PP2A1 in HeLa cell extracts. […]

Row | Molecule | Cell penetration (HeLa cells) | Intra-cellular localization (HeLa cells) | NaCl concentration at which bound PP2A1 phosphatase activity elutes from the Vpr-T-agarose column (PP2A1 holoenzyme)
1 | CC[C@H](C)[C@H](NC(=O)CNC(=O)[C@@H](NC(=O)[C@H](CCCNC(=N)N)NC(=O)[C@H](CO)NC(=O)[C@H](Cc1c[nH]cn1)NC(=O)[C@H](CCCNC(=N)N)NC(=O)CCCC[C@@H]1SC[C@@H]2NC(=O)N[C@@H]21)[C@@H](C)CC)C(=O)N[C@H](C(=O)N[C@@H](CCC(N)=O)C(=O)N[C@@H](CCC(N)=O)C(=O)N[C@@H](CCCNC(=N)N)C(=O)N[C@@H](CCCNC(=N)N)C(=O)N[C@H](C(=O)N[C@@H](CCCNC(=N)N)C(=O)N[C@@H](CC(N)=O)C(=O)NCC(=O)O)[C@@H](C)O)[C@@H](C)CC [DPT-Vpr1] | penetrate into HeLa cells | homogeneous cytoplasm labeling | 
2 | CC[C@H](C)[C@H](NC(=O)CNC(=O)[C@@H](NC(=O)[C@H](C)NC(=O)[C@H](CO)NC(=O)[C@H](Cc1c[nH]cn1)NC(=O)[C@H](C)NC(=O)CCCC[C@@H]1SC[C@@H]2NC(=O)N[C@@H]21)[C@@H](C)CC)C(=O)N[C@H](C(=O)N[C@@H](CCC(N)=O)C(=O)N[C@@H](CCC(N)=O)C(=O)N[C@@H](CCCNC(=N)N)C(=O)N[C@@H](CCCNC(=N)N)C(=O)N[C@@H](C)C(=O)N[C@@H](CCCNC(=N)N)C(=O)N[C@@H](CC(N)=O)C(=O)NCC(=O)O)[C@@H](C)CC [DPT-Vpr3] (Biotin-AHSAIGIIQQRRARNG-OH) | penetrate into HeLa cells | homogeneous cytoplasm labeling | 
3 | N=C(N)NCCC[C@H](NC(=O)[C@H](CCCNC(=N)N)NC(=O)[C@H](CCC(N)=O)NC(=O)[C@H](CCCNC(=N)N)NC(=O)[C@H](CCCNC(=N)N)NC(=O)[C@H](CCCCN)NC(=O)[C@H](CCCCN)NC(=O)[C@H](CCCNC(=N)N)NC(=O)CNC(=O)[C@H](Cc1ccc(O)cc1)NC(=O)CCCC[C@@H]1SC[C@@H]2NC(=O)N[C@@H]21)C(=O)O [Tat, reference compound] (Biotin-YGRKKRRQRR-OH) | penetrate into HeLa cells | homogeneous cytoplasm labeling | 
4 | B1 |  |  | 0.3 M NaCl
